Where a name gives a salt, the structure may show the parent alone.

As usually defined, the melting point is the temperature, or range, at which the solid turns liquid.

As for `COc1ccc2[nH]c3c(c2c1)CCN(CCc1ccc(-c2cccc(N)n2)c2ccccc12)C3`, the melting point lay within 132 to 138 °C.

Regarding `Nc1cccc(-c2ccc(OC3CN4CCC3CC4)c3ccccc23)n1` (stereo not drawn) (as salt: hydrochloride), the melting point was in the range of 220 to 228 °C.

`CN1C2CCC1CC(Oc1ccc(-c3cccc(N)n3)c3ccccc13)C2` (stereo not drawn) (as salt: hydrochloride) yielded a melting point of 260 to 275 °C.

`Nc1cccc(-c2ccc(CCN3CCN(CCc4ccccc4)CC3)c3ccccc23)n1` (as salt: hydrochloride) [Example 1, 6-{4-[2-(4-Phenethyl-piperazin-1-yl)-ethyl]-naphthalen-1-yl)-pyridin-2-ylamine] returned a melting point of 80 to 105 °C.

`Nc1cccc(-c2ccc(CCN3CC4C(N)C4C3)c3ccccc23)n1` (stereo not drawn) (as salt: hydrochloride) [Example 2, 3-{2-[4-(6-Amino-pyridin-2-yl)-naphthalen-1-yl]-ethyl}-3-aza-bicyclo[3.1.0]hex-6-ylamine] displayed a melting point of 250 to 260 °C.

`Nc1cccc(-c2ccc(CCN3CCC(C(c4ccccc4)c4ccccc4)CC3)c3ccccc23)n1` (as salt: hydrochloride) [Example 3, 6-{4-[2-(4-Benzhydryl-piperidin-1-yl)-ethyl]-naphthalen-1-yl}-pyridin-2-ylamine] returned a melting point of 225 to 235 °C.

As to `Nc1cccc(-c2ccc(CCNCc3ccc4c(c3)OCO4)c3ccccc23)n1` (as salt: hydrochloride) [Example 6, 6-(4-{2-[(Benzo[1,3]dioxol-5-ylmethyl)-amino]-ethyl}-naphthalen-1-yl)-pyridin-2-ylamine], the melting point lay in the range of 80 to 110 °C.

`Nc1cccc(-c2ccc(CCNCc3ccc(F)c(F)c3)c3ccccc23)n1` (as salt: hydrochloride) [Example 7, 6-{4-[2-(3,4-Difluoro-benzylamino)-ethyl]-naphthalen-1-yl}-pyridin-2-ylamine] returned a melting point of 70 to 80 °C.

Regarding `COc1cc(CNCCc2ccc(-c3cccc(N)n3)c3ccccc23)cc(OC)c1OC` (as salt: hydrochloride) [Example 8, 6-{4-[2-(3,4,5-Trimethoxy-benzylamino)-ethyl]-naphthalen-1-yl}-pyridin-2-ylamine], the melting point fell in the range of 75 to 95 °C.

`Nc1cccc(-c2ccc(CCNCc3cccc(Cl)c3)c3ccccc23)n1` (as salt: hydrochloride) [Example 9, 6-{4-[2-(3-Chloro-benzylamino)-ethyl]-naphthalen-1-yl}-pyridin-2-ylamine] displayed a melting point of 60 to 75 °C.

For `Nc1cccc(-c2ccc(CCNCc3ccco3)c3ccccc23)n1` (as salt: hydrochloride) [Example 10, 6-(4-{2-[(Furan-2-ylmethyl)-amino]-ethyl}-naphthalen-1-yl)-pyridin-2-ylamine], the melting point was in the range of 185 to 205 °C.

Compound `Nc1cccc(-c2ccc(CCNCc3ccc(Cl)c(Cl)c3)c3ccccc23)n1` (as salt: hydrochloride) [Example 11, 6-{4-[2-(3,4-Dichloro-benzylamino)-ethyl]-naphthalen-1-yl}-pyridin-2-ylamine] came in with a melting point of 145 to 170 °C.

With `Nc1cccc(-c2ccc(OCCNCc3ccc4c(c3)OCO4)c3ccccc23)n1` (as salt: hydrochloride) [Example 14, 6-(4-{2-[(Benzo[1,3]dioxol-5-ylmethyl)-amino]-ethoxy}-naphthalen-1-yl)-pyridin-2-ylamine], the melting point lay within 60 to 80 °C.

In turn, `COc1cc2c(cc1OC)CN(CCOc1ccc(-c3cccc(N)n3)c3ccccc13)CC2` (as salt: hydrochloride) [Example 15, 6-{4-[2-(6,7-Dimethoxy-3,4-dihydro-1H-isoquinolin-2-yl)-ethoxy]-naphthalen-1-yl}-pyridin-2-ylamine] gave a melting point of 130 to 150 °C.

As for `Nc1cccc(-c2ccc(OCCN3CC4C(N)C4C3)c3ccccc23)n1` (stereo not drawn) (as salt: hydrochloride) [Example 16, 3-{2-[4-(6-Amino-pyridin-2-yl)-naphthalen-1-yloxy]-ethyl}-3-aza-bicyclo[3.1.0]hex-6-ylamine], the melting point was in the range of 140 to 155 °C.

In turn, `Nc1cccc(-c2ccc(OCCN3CCN(CCc4ccccc4)CC3)c3ccccc23)n1` (as salt: hydrochloride) [Example 17, 6-{4-[2-(4-Phenethyl-piperazin-1-yl)-ethoxy]-naphthalen-1-yl}-pyridin-2-ylamine] showed a melting point of 45 to 80 °C.

In the case of `Nc1cccc(-c2ccc(OCCN3CCC(N)C3)c3ccccc23)n1` (stereo not drawn) (as salt: hydrochloride) [Example 18, 6-{4-[2-(3-Amino-pyrrolidin-1-yl)-ethoxy]-naphthalen-1-yl}-pyridin-2-ylamine], the melting point was 70 to 90 °C.

For `Nc1cccc(-c2ccc(OC3CCN(Cc4ccccc4)CC3)c3ccccc23)n1` (as salt: hydrochloride) [Example 24, 6-[4-(1-Benzyl-piperidin-4-yloxy)-naphthalen-1-yl]-pyridin-2-ylamine], the melting point was 265 to 285 °C (dec.).

Compound `Nc1cccc(-c2ccc(OC3CCN(Cc4ccccc4)C3)c3ccccc23)n1` (stereo not drawn) (as salt: hydrochloride) [Example 25, 6-[4-(1-Benzyl-pyrrolidin-3-yloxy)-naphthalen-1-yl]-pyridin-2-ylamine] registered a melting point of 160 to 170 °C.

On to `CN(C)CCCCOc1ccc(-c2cccc(N)n2)c2ccccc12` (as salt: hydrochloride) [Example 26, 6-[4-(4-Dimethylamino-butoxy)-naphthalen-1-yl]-pyridin-2-ylamine], for which the melting point lay within 78 to 90 °C.

`Nc1cccc(-c2ccc(OC3CCNCC3)c3ccccc23)n1` (as salt: hydrochloride) [Example 27, 6-[4-(Piperidin-4-yloxy)-naphthalen-1-yl]-Pyridin-2-ylamine] registered a melting point of 65 to 75 °C.

For `Nc1cccc(-c2ccc(OC3CCNC3)c3ccccc23)n1` (stereo not drawn) (as salt: hydrochloride) [Example 28, 6-[4-(Pyrrolidin-3-yloxy)-naphthalen-1-yl]-pyridin-2-ylamine], the melting point lay within 60 to 70 °C.

With `CC(C)CN1CCC(Oc2ccc(-c3cccc(N)n3)c3ccccc23)CC1` (as salt: hydrochloride) [Example 29, 6-[4-(1-Isobutyl-piperidin-4-yloxy)-naphthalen-1-yl]-pyridin-2-ylamine], the melting point is 198 to 210 °C.

The compound `Nc1cccc(-c2ccc(OC3CCN(Cc4ccco4)CC3)c3ccccc23)n1` (as salt: hydrochloride) [Example 30, 6-[4-(1-Furan-2-ylmethyl-piperidin-4-yloxy)-naphthalen-1-yl]-pyridin-2-ylamine] registered a melting point of 178 to 195 °C.

In turn, `CC(C)CN1CCC(Oc2ccc(-c3cccc(N)n3)c3ccccc23)C1` (stereo not drawn) (as salt: hydrochloride) [Example 31, 6-[4-(1-Isobutyl-pyrrolidin-3-yloxy)-naphthalen-1-yl]-pyridin-2-ylamine] yielded a melting point of 78 to 85 °C.

The compound `Nc1cccc(-c2ccc(OC3CCN(Cc4ccco4)C3)c3ccccc23)n1` (stereo not drawn) (as salt: hydrochloride) [Example 32, 6-[4-(1-Furan-2-ylmethyl-pyrrolidin-3-yloxy)-naphthalen-1-yl]-pyridin-2-ylamine] showed a melting point of 140 to 160 °C.

`CN1CCC(Oc2ccc(-c3cccc(N)n3)c3ccccc23)CC1` (as salt: hydrochloride) [Example 33, 6-[4-(1-Methyl-piperidin-4-yloxy)-naphthalen-1-yl]-pyridin-2-ylamine] came in with a melting point of 179 to 187 °C.

`CN(C)CCCOc1ccc(-c2cccc(N)n2)c2ccccc12` (as salt: hydrochloride) [Example 35, 6-[4-(3-Dimethylamino-propoxy)-naphthalen-1-yl]-pyridin-2-ylamine] displayed a melting point of 105 to 120 °C.

`CN(CCOc1ccc(-c2cccc(N)n2)c2c1CCCC2)C(C)(C)C` (as salt: hydrochloride) [Example 39, 6-{4-[2-(tert-Butyl-methyl-amino)-ethoxy]-5,6,7,8-tetrahydro-naphthalen-1-yl}-pyridin-2-ylamine] gave a melting point of 65 to 90 °C.

As for `CC(C)N(CCOc1ccc(-c2cccc(N)n2)c2c1CCCC2)C(C)C` (as salt: hydrochloride) [Example 40, 6-[4-(2-Diisopropylamino-ethoxy)-5,6,7,8-tetrahydro-naphthalen-1-yl]-pyridin-2-ylamine], the melting point lay within 50 to 60 °C.

`Nc1cccc(-c2ccc(OCCN3CCN(CCc4ccccc4)CC3)c3c2CCC3)n1` (as salt: hydrochloride) [Example 61, 6-[7-[(4-Phenethylpiperazin-1-yl)-ethoxy]-indan-4-yl]-pyridin-2-ylamine] showed a melting point of 105 to 130 °C.

In the case of `CC(C)CN1CCN(CCOc2ccc(-c3cccc(N)n3)c3c2CCC3)CC1` (as salt: hydrochloride) [Example 62, 6-[7-[(4-Isobutylpiperazin-1-yl)-ethoxy]-indan-4-yl]-pyridin-2-ylamine], the melting point fell in the range of 170 to 190 °C.

Turning to `Nc1cccc(-c2ccc(OC3CCCCC3N)c3ccccc23)n1` (stereo not drawn) (as salt: hydrochloride) [Example 63, 6-[4-(2-Amino-cyclohexyloxy)-naphthalen-1-yl]-pyridin-2-ylamine], the melting point was in the range of 218 to 230 °C.

The compound `Nc1cccc(-c2ccc(OCC3CCCNC3)c3ccccc23)n1` (stereo not drawn) (as salt: hydrochloride) [Example 64, 6-[4-(Piperidin-3-ylmethoxy)-naphthalen-1-yl]-pyridin-2-ylamine] displayed a melting point of 164 to 185 °C.

`CC(C)CN1CC(Oc2ccc(-c3cccc(N)n3)c3ccccc23)C1` (as salt: hydrochloride) [Example 65, 6-[4-(1-Isobutyl-azetidin-3-yloxy)-naphthalen-1-yl]-pyridin-2-ylamine] displayed a melting point of 133 to 148 °C.

On to `Nc1cccc(-c2ccc(OC3CN(Cc4ccco4)C3)c3ccccc23)n1` (as salt: hydrochloride) [Example 67, 6-[4-(1-Furan-2-ylmethyl-azetidin-3-yloxy)-naphthalen-1-yl]-pyridin-2-ylamine], for which the melting point fell in the range of 75 to 90 °C.

The record behind these values is patent US7012078B2, “2-aminopyridines containing fused ring substituents” (Pfizer Inc., priority 1997, dated 2006).
